Measurements from publication PMC9975698, “Hyperoside alleviates toxicity of β-amyloid via endoplasmic reticulum-mitochondrial calcium signal transduction cascade in APP/PS1 double transgenic Alzheimer's disease mice” (Redox Biology, 2023).

Legend:
β-secretase = biological target: T1, β-secretase (Mus musculus, UniProt P56818); assay: BACE-1 inhibition assay (β-secretase activity in HT22 cell lysate); format: cell-based; details: HT22 cells, HYP 20–80 μM, 24 h
T1 construct: 50 μL supernatant (cell lysate) was transferred to each well in the 96-well plate; endogenous in cells; host or cells: HT22 cells
Experimental: The assay was performed in a 96-well flat-bottom white plate using β-Secretase Activity Fluorometric Assay Kit (Biovision, CA, USA). To begin, HT22 cells were treated with HYP (20–80 μM) for 24 h and then collected by centrifugation with ice-cold extraction buffer added for homogenization. After centrifugation, 50 μL supernatant (cell lysate) was transferred to each well in the 96-well plate. 2 μL of active β-secretase (protein concentration: 4 μg/μL) was added to the 50 μL of extraction buffer as the positive control. For negative control, 2 μL of the β-secretase inhibitor was added to the 50 μL of sample well. 2 μL of each of the tested samples were added into each sample well for inhibitory activity evaluation. Following compounds addition, 50 μL of 2X reaction buffer was added with a gentle mix and incubation for 20 min at 37 °C before adding 2 μL of the β-secretase substrate. The plate was then covered and incubated in the dark at 37 °C for 1 h. Samples were then measured in a fluorescent 96-well plate reader (Ex/Em = 345/500 nm). Background readings produced from the substrate without adding secretase were subtracted from all samples.

Solubility in water = format: physicochemical

T1 sequence (P56818 46-501): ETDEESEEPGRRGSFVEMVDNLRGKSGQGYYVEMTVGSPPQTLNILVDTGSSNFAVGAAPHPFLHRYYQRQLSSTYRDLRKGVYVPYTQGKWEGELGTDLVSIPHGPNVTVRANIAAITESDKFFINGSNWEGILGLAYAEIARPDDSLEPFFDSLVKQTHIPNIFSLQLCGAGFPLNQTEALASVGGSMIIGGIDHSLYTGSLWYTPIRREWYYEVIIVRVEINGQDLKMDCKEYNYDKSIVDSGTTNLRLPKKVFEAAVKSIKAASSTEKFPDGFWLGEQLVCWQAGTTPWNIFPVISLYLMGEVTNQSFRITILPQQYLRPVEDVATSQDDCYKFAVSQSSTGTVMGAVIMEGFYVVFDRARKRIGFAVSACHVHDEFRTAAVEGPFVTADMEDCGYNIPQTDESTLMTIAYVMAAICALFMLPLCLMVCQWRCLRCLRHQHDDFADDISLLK

SMILES: O=c1c(O[C@@H]2O[C@H](CO)[C@H](O)[C@H](O)[C@H]2O)c(-c2ccc(O)c(O)c2)oc2cc(O)cc(O)c12 [HYP, Quercetin-3-O-β-D-galactopyranoside]
- β-secretase activity (β-secretase): inhibited β-secretase activity
- solubility in water (Solubility in water): insoluble in water
